For 9 compounds, Ki and melting point results are on record in patent US8921397B2, “Benzofurane-piperidine compounds” (Hoffmann-La Roche Inc., priority 2011, dated 2014).

For series [1], the target named is human D2 receptor (Homo sapiens (Human), UniProt P14416). Put plainly: Radioligand binding ([3H]-spiperone) to human D2 receptor, HEK293 EBNA membranes. Conditions: HEK293 EBNA cells expressing human D2 receptor. As to the method:
(§1) HEK293 EBNA cells were transiently transfected with expression plasmids encoding for the human D2 or D3 or for the human 5-HT2A receptor, respectively. The cells were harvested 48 h post-transfection, washed three times with cold PBS and stored at −80° C. prior to use. The pellet was suspended in cold 50 mM Tris-HCl buffer containing 10 mM EDTA (pH 7.4) and was homogenized with a Polytron (Kinematica AG, Basel, Switzerland) for 20-30 sec at 12.000 rpm. After centrifugation at 48.000×g for 30 min at 4° C., the pellet was resuspended in cold 10 mM Tris-HCl buffer containing 0.1 mM EDTA (pH 7.4), homogenized, and centrifuged as above. This pellet was further resuspended in a smaller volume of ice cold 10 mM Tris-HCl buffer containing 0.1 mM EDTA (pH 7.4) and homogenized with a Polytron for 20-30 sec at 12.000 rpm. The protein content of this homogenate was determined with the Bio-Rad (Bradford) Protein Assay (Biorad Laboratories GmbH, München, Germany) according to the instructions of the manufacturer using gamma globulin as the standard. This homogenate was stored at −80° C. in aliquots and thawed immediately prior to use.
(§2) Aliquots of membrane preparations were thawed at RT, resuspended in assay buffer (D2, D3: 50 mM Tris-HCl, 120 mM NaCl, 5 mM MgCl2, 1 mM EDTA, 5 mM KCl, 1.5 mM CaCl2, pH=7.4; 5-HT2A: 50 mM Tris-HCl, 10 mM MgCl2, 1 mM EGTA, pH=7.4), homogenized with a Polytron for 20-30 sec at 12.000 rpm and adjusted to a final concentration of approximately 7.5 μg protein/well (D2, D3) and 15 μg protein/well (5-HT2A), respectively.
(§3) The binding affinity (Ki) of the compounds was determined using radioligand binding.
(§4) Membranes were incubated in a total volume of 200 μl with a fixed concentration of radioligand (final concentration approximately 0.7 nM [^3H]-spiperone for D2, 0.5 nM [^3 H]-spiperone for D3, and 1.1 nM [^3H]-ketanserin for 5-HT2A) and ten concentrations of test compound in ranging between 10 μM-0.1 nM for 1 h at RT. At the end of the incubation, the reaction mixtures were filtered on to unifilter 96-well white microplates with bonded GF/C filters (Packard BioScience, Zürich, Switzerland; preincubated for 1 h in 0.1% polyethylenimine (PEI) in assay buffer) with a Filtermate 196 harvester (Packard BioScience) and washed 3 times with cold assay buffer. The nonspecific binding was determined with equally composed reaction mixtures in the presence of 10 μM unlabelled spiperone. Per well 45 μl of Microscint 40 (Perkin Elmer, Schwerzenbach, Switzerland) was added, plates for sealed, shaken for 20 min and counted for 3 min on a Topcount Microplate Scintillation Counter (Canberra Packard SA, Zürich, Switzerland) with quenching correction.
(§5) The CPM value for each duplicate of a concentration of competing compound was averaged (y1), then the % specific binding was calculated according to the equation (((y1−non-specific)/(total binding−non-specific))×100). Graphs were plotted with the % specific binding using XLfit, a curve-fitting program that iteratively plots the data using Levenberg-Marquardt algorithm. The single site competition analysis equation used was y=A+((B−A)/(1+((x/C)D))), where y is the % specific binding, A is the minimum y, B is the maximum y, C is the IC50, x is the log 10 of the concentration of the competing compound and D is the slope of the curve (the Hill Coefficient). From these curves the IC50 (inhibition concentration at which 50% specific binding of the radioligand was displaced) and Hill coefficient were determined. The affinity constant (Ki) was calculated using the Cheng-Prusoff equation Ki=(IC50/1+([L]/Kd), where [L] is the concentration of radioligand and Kd is the dissociation constant of the radioligand at the receptor as determined by the saturation isotherm.

The target of series [2] is human D3 receptor (Homo sapiens (Human), UniProt P35462). Put plainly: Radioligand binding ([3H]-spiperone) to human D3 receptor, HEK293 EBNA membranes. As to conditions: HEK293 EBNA cells expressing human D3 receptor. As to the method: as §1, §2, §3, §4, §5
Sequence of human D3 receptor (P35462 whole entry): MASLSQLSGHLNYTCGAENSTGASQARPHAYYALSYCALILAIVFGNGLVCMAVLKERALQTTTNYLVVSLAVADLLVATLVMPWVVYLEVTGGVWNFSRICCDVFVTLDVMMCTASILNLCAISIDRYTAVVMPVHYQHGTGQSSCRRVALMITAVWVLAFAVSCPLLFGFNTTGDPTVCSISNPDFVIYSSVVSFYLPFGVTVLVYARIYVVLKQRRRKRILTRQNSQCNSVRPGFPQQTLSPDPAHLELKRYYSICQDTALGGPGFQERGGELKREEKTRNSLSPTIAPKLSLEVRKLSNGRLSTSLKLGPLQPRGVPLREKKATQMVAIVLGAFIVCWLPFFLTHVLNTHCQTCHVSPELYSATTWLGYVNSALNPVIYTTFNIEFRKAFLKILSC
In series [3] the target is human 5-HT2A receptor (Homo sapiens (Human), UniProt P28223). Put plainly: Radioligand binding ([3H]-ketanserin) to human 5-HT2A receptor, HEK293 EBNA membranes. As to conditions: HEK293 EBNA cells expressing human 5-HT2A receptor. As to the method: The ability of the compounds to bind to the 5-HT2A, D3 and D2 receptors was determined using radioligand binding to cloned receptors selectively expressed in HEK-293 EBNA cells.
Sequence of human 5-HT2A receptor (P28223 whole entry): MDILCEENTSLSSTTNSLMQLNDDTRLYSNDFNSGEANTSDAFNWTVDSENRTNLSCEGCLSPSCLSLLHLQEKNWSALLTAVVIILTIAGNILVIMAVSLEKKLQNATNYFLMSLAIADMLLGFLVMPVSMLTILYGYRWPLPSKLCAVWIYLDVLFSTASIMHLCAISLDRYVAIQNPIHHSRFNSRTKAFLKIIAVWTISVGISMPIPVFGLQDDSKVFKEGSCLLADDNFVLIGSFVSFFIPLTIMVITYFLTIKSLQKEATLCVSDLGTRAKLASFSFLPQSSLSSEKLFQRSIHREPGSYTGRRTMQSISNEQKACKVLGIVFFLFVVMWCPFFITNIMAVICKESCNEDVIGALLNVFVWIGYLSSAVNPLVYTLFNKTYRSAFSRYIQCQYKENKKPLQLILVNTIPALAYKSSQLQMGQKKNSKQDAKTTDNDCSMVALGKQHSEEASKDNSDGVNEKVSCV
as §1, §2, §3, §4, §5

Broadly, the Ki is a dissociation constant, usually derived from enzyme kinetics or from competition with a known ligand. The term melting point denotes the temperature, or range, at which the solid turns liquid.

Sequence of human D2 receptor (P14416 whole entry): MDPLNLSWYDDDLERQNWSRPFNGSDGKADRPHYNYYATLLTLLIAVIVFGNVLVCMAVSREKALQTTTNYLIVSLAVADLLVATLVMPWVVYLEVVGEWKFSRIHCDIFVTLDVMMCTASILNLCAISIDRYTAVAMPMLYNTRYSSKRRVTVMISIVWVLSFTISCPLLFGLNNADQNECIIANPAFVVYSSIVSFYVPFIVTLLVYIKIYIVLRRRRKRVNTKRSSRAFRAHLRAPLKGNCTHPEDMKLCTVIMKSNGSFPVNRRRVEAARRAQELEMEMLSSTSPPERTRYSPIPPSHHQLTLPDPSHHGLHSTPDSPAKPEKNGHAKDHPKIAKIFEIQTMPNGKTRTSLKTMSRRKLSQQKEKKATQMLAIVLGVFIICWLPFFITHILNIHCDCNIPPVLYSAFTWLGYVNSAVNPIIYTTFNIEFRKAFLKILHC

In turn, `O=C(N[C@H]1CC[C@H](CCN2CCC(c3coc4ccccc34)CC2)CC1)c1ccc(-c2ccccc2)cc1` [Example 63, Biphenyl-4-carboxylic acid trans-{4-[2-(4-benzofuran-3-yl-piperidin-1-yl)-ethyl]-cyclohexyl}-amide] returned a melting point of 235 °C. For the same compound, the Ki in series [1] is 22.1 nM. Also, the Ki in series [2] was 3.37 nM. Moreover, the inhibition constant Ki in series [3] is 5.21 nM.

`CC(C)CCC(=O)N[C@H]1CC[C@H](CCN2CCC(c3coc4ccccc34)CC2)CC1` [Example 45, 4-Methyl-pentanoic acid trans-{4-[2-(4-benzofuran-3-yl-piperidin-1-yl)-ethyl]-cyclohexyl}-amide] showed a melting point of 179 °C. Moreover, in series [1], the inhibition constant (Ki) is 66 nM. The Ki in series [2] worked out at 2.9 nM. Besides, the Ki in series [3] came out at 13.1 nM.

Regarding `CC(C)(O)CC(=O)N[C@H]1CC[C@H](CCN2CCC(c3coc4ccccc34)CC2)CC1` [Example 34, trans-N-{4-[2-(4-Benzofuran-3-yl-piperidin-1-yl)-ethyl]-cyclohexyl}-3-hydroxy-3-methyl-butyramide], the melting point is 150 °C. Also, in series [1], the Ki stood at 41.3 nM. Moreover, the Ki in series [2] turned out to be 2.25 nM. Besides, the inhibition constant Ki in series [3] turned out to be 5.1 nM.

As for `O=C(N[C@H]1CC[C@H](CCN2CCC(c3coc4ccccc34)CC2)CC1)c1ccnc2ccccc12` [Example 19, Quinoline-4-carboxylic acid trans-{4-[2-(4-benzofuran-3-yl-piperidin-1-yl)-ethyl]-cyclohexyl}-amide], the melting point is 169 °C. Moreover, in series [1], the Ki is 96.7 nM. In series [2], the inhibitory constant (Ki) turned out to be 3.36 nM. In addition, the inhibition constant Ki in series [3] came out at 8.7 nM.

The compound `O=C(N[C@H]1CC[C@H](CCN2CCC(c3coc4ccccc34)CC2)CC1)C(O)C(F)(F)F` (mixture of isomers) [Example 32, trans-N-{4-[2-(4-Benzofuran-3-yl-piperidin-1-yl)-ethyl]-cyclohexyl}-(RS)-3,3,3-trifluoro-2-hydroxy-propionamide] gave a melting point of 206 °C. The Ki in series [1] turned out to be 46.4 nM. Besides, the Ki in series [2] came out at 4.02 nM. In addition, the Ki in series [3] came to 6.08 nM.

Regarding `CC(C)(O)C(=O)N[C@H]1CC[C@H](CCN2CCC(c3coc4ccccc34)CC2)CC1` [Example 16, trans-N-{4-[2-(4-Benzofuran-3-yl-piperidin-1-yl)-ethyl]-cyclohexyl}-2-hydroxy-2-methyl-propionamide], the melting point came out at 169 °C. For the same compound, the Ki in series [1] turned out to be 53.7 nM. The Ki in series [2] came out at 5.51 nM. For the same compound, the Ki in series [3] worked out at 2.25 nM.

Compound `O=C(C[C@@H](O)C(F)(F)F)N[C@H]1CC[C@H](CCN2CCC(c3coc4ccccc34)CC2)CC1` [Example 35, trans-N-{4-[2-(4-Benzofuran-3-yl-piperidin-1-yl)-ethyl]-cyclohexyl}-(R)-4,4,4-trifluoro-3-hydroxy-butyramide] showed a melting point of 166 °C. For the same compound, the Ki in series [1] came to 50.4 nM. Also, the Ki in series [2] is 2.29 nM. Also, the inhibition constant Ki in series [3] turned out to be 9.69 nM.

Regarding `Cc1ccc(C(=O)N[C@H]2CC[C@H](CCN3CCC(c4coc5ccccc45)CC3)CC2)cn1` [Example 69, trans-N-{4-[2-(4-Benzofuran-3-yl-piperidin-1-yl)-ethyl]-cyclohexyl}-6-methyl-nicotinamide], the melting point was 203 °C. Besides, in series [1], the Ki was found to be 28.1 nM. Besides, the inhibition constant Ki in series [2] is 2.53 nM. Moreover, the Ki in series [3] was 5.11 nM.

With `CN(C)S(=O)(=O)N[C@H]1CC[C@H](CCN2CCC(c3coc4ccccc34)CC2)CC1` [Example 43, N′-(trans-4-{2-[4-(benzofuran-3-yl)-piperidin-1-yl]-ethyl}-cyclohexyl)-N,N-dimethylsulfamide], the melting point turned out to be 229 °C. Further, the Ki in series [1] turned out to be 47 nM. For the same compound, in series [2], the inhibitory constant (Ki) was 3.02 nM. Also, the Ki in series [3] is 4.41 nM.
